Where two headings read alike, the source gives them in different places.
Columns and labels:
Format in all cases: cell-based
CV-1 cells = assay: selective killing assay, colony number reduced to 50% of control, normal monkey kidney epithelial cell line CV-1; conditions: 24 hours treatment; for IC50: Primates
From the text: The control received culture media only.

CX-1 cells = assay: selective killing assay, colony number reduced to 50% of control, human colon carcinoma cell line CX-1; conditions: for IC50 / CX-1 (IC50): human colon carcinoma, 24 hours treatment, colony count after 7 to 10 days;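 on all read-outs here: colonies stained with crystal violet and counted, control cells given medium alone, exposure at 37 °C, normal monkey kidney epithelial CV-1 cells as the non-cancer comparator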
LOX cells = assay: colony assay of Example 1 with human melanoma LOX cell line; conditions: for Selectivity: CV-1/LOX;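 on all read-outs here: colony formation assay with 24 h exposure at 37 °C, then 7 to 10 days of regrowth, crystal violet staining of colonies, control wells given medium alone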
Description: Human colon carcinoma cell line CX-1 or normal monkey kidney epithelial cell line CV-1 was chosen as representatives of cancer cells and normal cells, respectively. […] CX-1 cells (2,000 cells/well) and CV-1 cells (1,000 cells/well) were plated in 24-well plastic culture plates. […] The control received culture media only. Cells were treated with compounds of General Formulas (I) to (V) at 37° C. for 24 hours. After rinsing with fresh culture medium three times, the cells were further incubated at 37° C. for 7 to 10 days. Cell colonies were fixed and stained with 2% crystal violet in 70% ethanol for 10 minutes and rinsed in water. […] The selectivity is defined as the ratio of IC50 for CV-1 and IC50 for CX-1.

CRL 1420 cells = assay: colony assay of Example 1 with human pancreatic carcinoma CRL 1420 cell line; conditions: for Selectivity: CV-1/CRL-1420; for IC50: Homo sapiens, 24 h;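 on all read-outs here: colony formation assay, cells exposed for 24 h then regrown 7 to 10 days without compound, colonies stained with crystal violet, control given medium alone, normal reference CV-1 monkey kidney epithelial cells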
EJ cells = assay: colony assay of Example 1 with human bladder carcinoma EJ cell line; conditions: for Selectivity: CV-1/EJ; for IC50: Homo sapiens, EJ, 24 h, Table IV, human bladder carcinoma, 24 hours treatment;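 on all read-outs here: colony formation assay with 24 h compound exposure at 37 °C, then 7–10 days drug-free regrowth, colonies stained with crystal violet, controls given medium alone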
[1] = CV-1, Table III, normal monkey kidney epithelial cells, colony count after 7 to 10 days
[2] = Table III, normal monkey kidney epithelial cells, colony count after 7 to 10 days
[3] = Table VII, human pancreatic carcinoma, 24 hours treatment

SMILES | IC50 (CV-1 cells; [1]) | Selectivity (ratio of IC50 for CV-1 and IC50 for CX-1) (CX-1 cells; CV-1/CX-1) | IC50 (CX-1 cells; Homo sapiens, CX-1, Table III) | also measured
CCN1C(=CC=c2sc(=Cc3sc4c([n+]3CC)CCCC4)n(CC)c2=O)Oc2ccccc21 [C, reference compound] | 2 µg/mL | 50 | 0.04 µg/mL | 
CCn1c(=CC2=[N+](C)c3ccccc3C2(C)C)sc(=C2Sc3ccccc3N2C)c1=O [Compound 17] | 10 µg/mL | 167 | 0.06 µg/mL | 
CCn1c(=Cc2cccc[n+]2CC)sc(=C2Sc3ccccc3N2C)c1=O [Compound 18] | 20 µg/mL | 4000 | 0.005 µg/mL | 
CCn1c(=Cc2ccc3ccccc3[n+]2CC)sc(=C2Sc3ccccc3N2C)c1=O [Compound 20] | 2 µg/mL |  | 0.02 µg/mL | Selectivity (ratio of IC50 for CV-1 and IC50 for CX-1) (CX-1 cells): 100
CCn1c(=Cc2cc[n+](CC)c3ccccc23)sc(=C2Sc3ccccc3N2C)c1=O [Compound 24] | 1.5 µg/mL | 150 | 0.01 µg/mL | 
CCn1c(=Cc2oc3ccccc3[n+]2C)sc(=C2Sc3ccccc3N2C)c1=O [Compound 25] |  | 150 |  | CV-1 (IC50) (CV-1 cells; [2]): 6 µg/mL; CX-1 (IC50) (CX-1 cells; Table III): 0.04 µg/mL
CCn1c(=Cc2scc(C)[n+]2CC)sc(=C2Sc3ccccc3N2C)c1=O [Compound 32] | 6 µg/mL | 150 | 0.04 µg/mL | 
CCn1c(=Cc2oc3ccccc3[n+]2CC)sc(=C2Sc3ccccc3N2C)c1=O [Compound 34] |  | 267 |  | CV-1 (IC50) (CV-1 cells; [2]): 8 µg/mL; CX-1 (IC50) (CX-1 cells; Table III): 0.03 µg/mL
CCn1c(=Cc2oc3ccc(OC)cc3[n+]2CC)sc(=C2Sc3ccccc3N2C)c1=O [Compound 35] | 6 µg/mL | 150 | 0.04 µg/mL | 
CCn1c(=Cc2oc3ccccc3[n+]2CC)sc(=C2Sc3ccccc3N2C)c1=O [Compound 38] |  | 333 |  | CV-1 (IC50) (CV-1 cells; [2]): 10 µg/mL; CX-1 (IC50) (CX-1 cells; Table III): 0.03 µg/mL
CCn1c(=Cc2sc3ccc(Cl)cc3[n+]2CC)sc(=C2Sc3ccccc3N2C)c1=O [Compound 40] | 6 µg/mL | 200 | 0.03 µg/mL | 
CC[n+]1c(C=c2sc(=C3Sc4ccccc4N3C)c(=O)n2C2CCCCC2)oc2ccccc21 [Compound 42] | 2 µg/mL | 100 | 0.02 µg/mL | 
CN1C(=c2sc(=Cc3oc4ccccc4[n+]3C)n(C)c2=O)Sc2ccccc21 [Compound 46] | 10 µg/mL | 100 |  | IC50 (CX-1 cells; CX-1, Table III): 0.1 µg/mL
CCn1c(=Cc2sc3ccccc3[n+]2CC)sc(=C2Sc3ccc(OC)cc3N2C)c1=O [Compound 47] | 6 µg/mL | 150 | 0.04 µg/mL | 
CCn1c(=Cc2sc3c4ccccc4ccc3[n+]2CC)sc(=C2Sc3ccc(Cl)cc3N2C)c1=O [Compound 54] | 20 µg/mL | 400 | 0.05 µg/mL | 
CCn1c(=Cc2[se]c3ccccc3[n+]2CC)sc(=C2Sc3ccc(Cl)cc3N2C)c1=O [Compound 63] | 20 µg/mL | 100 |  | IC50 (CX-1 cells; CX-1, Table III): 0.2 µg/mL
CCn1c(=CC2=[N+](CC)CCS2)sc(=C2Sc3ccc(OC)cc3N2C)c1=O [Compound 65] | 20 µg/mL | 100 | 0.2 µg/mL | 
CCn1c(=CC2=[N+](CC)CCS2)sc(=C2Sc3ccc4ccccc4c3N2C)c1=O [Compound 86] | 10 µg/mL | 200 | 0.05 µg/mL | 
CCn1c(=Cc2sc3c4ccccc4ccc3[n+]2CC)sc(=C2Sc3ccc4ccccc4c3N2C)c1=O [Compound 91] |  | 500 |  | CV-1 (IC50) (CV-1 cells; [2]): 20 µg/mL; CX-1 (IC50) (CX-1 cells; Table III): 0.04 µg/mL
CCn1c(=Cc2sc3ccc(OC)cc3[n+]2CC)sc(=C2Sc3ccc4ccccc4c3N2C)c1=O [Compound 95] | 20 µg/mL | 500 | 0.04 µg/mL | 
CCn1c(=Cc2oc3cc4ccccc4cc3[n+]2CC)sc(=C2Sc3ccc4ccccc4c3N2C)c1=O [Compound 96] | 20 µg/mL | 333 | 0.06 µg/mL | 

SMILES | IC50 (CV-1 cells; [1]) | Selectivity (ratio of IC50 for CV-1 and IC50 for CX-1) (CX-1 cells; CV-1/CX-1) | IC50 (CX-1 cells; Homo sapiens, CX-1, Table III) | also measured
CCn1c(=Cc2sc3ccccc3[n+]2CC)sc(=C2Sc3c(ccc4ccccc34)N2C)c1=O [Compound 98] | 8 µg/mL | 160 | 0.05 µg/mL | 
CCn1c(=Cc2sc3c4ccccc4ccc3[n+]2CC)sc(=C2Sc3c(ccc4ccccc34)N2C)c1=O [Compound 99] | 10 µg/mL | 100 | 0.1 µg/mL | 
CCn1c(=Cc2oc3ccccc3[n+]2CC)sc(=C2Oc3ccccc3N2C)c1=O [Compound 104] | 18 µg/mL | 180 | 0.1 µg/mL | 
CCn1c(=Cc2sc3ccccc3[n+]2CC)sc(=C2Oc3ccc(OC)cc3N2C)c1=O [Compound 105] | 6 µg/mL | 120 | 0.05 µg/mL | 
CCn1c(=Cc2sc3c4ccccc4ccc3[n+]2CC)sc(=C2Oc3ccc4ccccc4c3N2C)c1=O [Compound 115] | 6 µg/mL | 120 | 0.05 µg/mL | 
CCn1c(=Cc2oc3ccccc3[n+]2CC)sc(=C2Oc3ccc4ccccc4c3N2C)c1=O [Compound 117] | 4 µg/mL | 133 | 0.03 µg/mL | 
CCn1c(=Cc2sc3c4ccccc4ccc3[n+]2CC)sc(=C2SCCN2C)c1=O [Compound 121] | 20 µg/mL | 200 | 0.1 µg/mL | 
CCn1c(=Cc2sc3ccccc3[n+]2CC)sc(=C2SC3=C(CCCC3)N2C)c1=O [Compound 129] | 10 µg/mL | 100 | 0.1 µg/mL | 
CCn1c(=Cc2sc3c4ccccc4ccc3[n+]2CC)sc(=C2SC=C(C)N2C)c1=O [Compound 131] | 6 µg/mL | 120 | 0.05 µg/mL | 
CCn1c(=Cc2sc3ccc4ccccc4c3[n+]2CC)sc(=C2C=Cc3ccccc3N2C)c1=O [Compound 163] | 20 µg/mL | 667 | 0.03 µg/mL | 
CCn1c(=Cc2sc3ccc4ccccc4c3[n+]2CC)sc(=C2Oc3ccc(Cl)cc3N2C)c1=O [Compound 209] |  |  |  | IC50 (CV-1 cells; CV-1, 24 h, Table V): 20 µg/mL; IC50 (CV-1 cells; CV-1, 24 h, Table VII): 20 µg/mL; Selectivity (LOX cells): 100; IC50 (LOX cells; Homo sapiens, LOX, 24 h, Table V, human melanoma, 24 hours treatment): 0.2 µg/mL; Selectivity (CRL 1420 cells): 200; IC50 (CRL 1420 cells; [3]): 0.1 µg/mL
CCn1c(=Cc2scc[n+]2CC)sc(=C2Oc3ccc(-c4ccccc4)cc3N2C)c1=O [Compound 210] | 10 µg/mL | 100 | 0.1 µg/mL | IC50 (CV-1 cells; CV-1, 24 h, Table IV): 10 µg/mL; IC50 (CV-1 cells; CV-1, 24 h, Table VII): 10 µg/mL; Selectivity (EJ cells): 100; IC50 (EJ cells): 0.1 µg/mL; Selectivity (CRL 1420 cells): 111; IC50 (CRL 1420 cells; [3]): 0.09 µg/mL
CCn1c(=Cc2sc3ccc4ccccc4c3[n+]2CC)sc(=C2Sc3ccc(Cl)cc3N2C)c1=O [Compound 223] | 20 µg/mL | 200 | 0.1 µg/mL | 
CCn1c(=Cc2oc3cc4ccccc4cc3[n+]2CC)sc(=C2Sc3c(ccc4ccccc34)N2C)c1=O [Compound 237] |  |  |  | IC50 (CV-1 cells; CV-1, 24 h, Table VII): 8 µg/mL; Selectivity (CRL 1420 cells): 267; IC50 (CRL 1420 cells; [3]): 0.03 µg/mL
CCn1c(=Cc2sc3ccc4ccccc4c3[n+]2CC)sc(=C2Sc3c(ccc4ccccc34)N2C)c1=O [Compound 255] | 5 µg/mL | 100 | 0.05 µg/mL | 
CCn1c(=Cc2sc3ccc4ccccc4c3[n+]2CC)sc(=C2Sc3ccc(C(F)(F)F)cc3N2C)c1=O [Compound 307] | 6 µg/mL | 120 | 0.05 µg/mL | 
CCn1c(=CC2=[N+](CC)C(C)CS2)sc(=C2Sc3ccc4ccccc4c3N2C)c1=O (stereo not drawn) [Compound 309] | 4 µg/mL | 400 | 0.01 µg/mL | 
CC[n+]1c(C=c2sc(=C3Sc4ccc5ccccc5c4N3C)c(=O)n2CC(=O)OC)sc2c3ccccc3ccc21 [Compound 311] | 20 µg/mL | 667 | 0.03 µg/mL | IC50 (CV-1 cells; CV-1, 24 h, Table IV): 20 µg/mL; Selectivity (EJ cells): 400; IC50 (EJ cells): 0.05 µg/mL
CC[N+]1=C(C=c2sc(=C3Oc4ccc5ccccc5c4N3C)c(=O)n2Cc2ccccc2)SCC1 [Compound 314] | 10 µg/mL | 200 | 0.05 µg/mL | 
C=CCn1c(=Cc2oc3ccc4ccccc4c3[n+]2C)sc(=C2Oc3c(ccc4ccccc34)N2C)c1=O [Compound 319] |  |  |  | IC50 (CV-1 cells; CV-1, 24 h, Table IV): 6 µg/mL; Selectivity (EJ cells): 300; IC50 (EJ cells): 0.02 µg/mL
CCn1c(=Cc2ccc3ccccc3[n+]2CC)sc(=C2Sc3ccccc3N2C)c1=O [Compound 341] |  |  |  | CV-1 (IC50) (CV-1 cells; Table V): 6 µg/mL; CV-1 (IC50) (CV-1 cells; Table VII): 6 µg/mL; Selectivity (LOX cells): 200; LOX(IC50) (LOX cells; Table V, human melanoma, 24 hours treatment): 0.03 µg/mL; Selectivity (CRL 1420 cells): 200; CRL-1420(IC50) (CRL 1420 cells; [3]): 0.03 µg/mL
